Measured values reported in patent publication US10358434B2, “2-(3-pyridinyl)-1H-benzimidazole derivative compound and medicament containing same” (NIHON MEDI-PHYSICS CO., LTD., priority 2014, dated 2019).

Columns and labels:
[1] = tested on: human adrenal gland section expressing aldosterone-producing adenoma; assay: In vitro autoradiography using human adrenal adenoma; format: binding; settings: section of FIG. 17(a)
In short: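 Frozen 7-μm sections of human adrenal bearing aldosterone-producing adenoma were immersed 10 min in radioligand (5-33 kBq/mL) in PBS with 1% fatty-acid-free BSA, washed, then exposed to imaging plates for 16-20 h. Equal-area ROI PSL in adenoma (B2) versus normal cortex (B1) gave B2/B1, corrected for nuclide half-life, added activity and exposure time.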

[2] = Plasma stability evaluation (TLC analysis); format: in vitro ADME; settings: 37° C., 60 minutes, TLC analysis
In short: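 Radiolabelled compounds were incubated in heparin-treated pooled normal human plasma at 37° C for 60 minutes. After methanol deproteinization and centrifugation, stability was assessed by TLC under the conditions used for each compound's synthesis.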

[3] = In vivo kinetics experiment (radioactivity distribution); parameters: species or system Wistar male rat; settings: rat, caudal vein
In short: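 Male Wistar rats (9 weeks) under isoflurane received approximately 1 to 3.7 MBq radiotracer in saline with 1 w/v % ascorbic acid by tail-vein injection. At 10, 30 and 60 min, rats were exsanguinated; blood, organs and remaining body weighed and counted, giving % ID/g and adrenal-to-tissue ratios.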

[123I]c1ccc2nc(-c3cncc(Cn4ccnc4)c3)n(C3CC3)c2c1 [[^123I] 602, 1-Cyclopropyl-2-[3-(1H-imidazol-1-ylmethyl)pyridin-5-yl]-6-[^123I]iodo-1H-benzimidazole]
B2/B1 accumulation ratio [1]: 2.06 | B2 (PSL value, aldosterone-producing adenoma) ([1]; site 71a): 6142 | B1 (PSL value, normal adrenal cortex) ([1]; site 72a): 2981 | Radiochemical purity after incubation in human plasma [2]: 82% | Adrenal gland/blood ratio of radioactivity accumulation ([3]; 10 min after administration): 28.34 ± 5.95 | Adrenal gland/fat ratio of radioactivity accumulation ([3]; 10 min after administration): 89.23 ± 14.22 | Adrenal gland/kidney ratio of radioactivity accumulation ([3]; 10 min after administration): 5.85 ± 1.07 | Adrenal gland/liver ratio of radioactivity accumulation ([3]; 10 min after administration): 3.02 ± 0.41 | Adrenal gland/muscle ratio of radioactivity accumulation ([3]; 10 min after administration): 54.21 ± 12.64 | Adrenal gland/small intestine ratio of radioactivity accumulation ([3]; 10 min after administration): 6.95 ± 1.48 | Radioactivity distribution Adrenal gland ([3]; 10 min after administration): 9.09 ± 2.28 % ID/g | Radioactivity distribution Bladder (including urine) ([3]; 10 min after administration): 0.32 ± 0.15 % ID/g | Radioactivity distribution Blood ([3]; 10 min after administration): 0.32 ± 0.01 % ID/g | Radioactivity distribution Fat ([3]; 10 min after administration): 0.10 ± 0.01 % ID/g | Radioactivity distribution Heart ([3]; 10 min after administration): 0.63 ± 0.07 % ID/g | Radioactivity distribution Kidney ([3]; 10 min after administration): 1.54 ± 0.11 % ID/g | Radioactivity distribution Large intestine ([3]; 10 min after administration): 0.19 ± 0.00 % ID/g | Radioactivity distribution Liver ([3]; 10 min after administration): 2.98 ± 0.35 % ID/g | Radioactivity distribution Lung ([3]; 10 min after administration): 1.06 ± 0.09 % ID/g | Radioactivity distribution Muscle (lower limbs) ([3]; 10 min after administration): 0.17 ± 0.00 % ID/g | Radioactivity distribution Remaining whole body ([3]; 10 min after administration): 0.27 ± 0.01 % ID/g | Radioactivity distribution Small intestine ([3]; 10 min after administration): 1.30 ± 0.05 % ID/g | Radioactivity distribution Spleen ([3]; 10 min after administration): 5.26 ± 1.78 % ID/g | Radioactivity distribution Stomach ([3]; 10 min after administration): 1.03 ± 0.28 % ID/g | Radioactivity distribution Testis ([3]; 10 min after administration): 0.07 ± 0.02 % ID/g | Radioactivity distribution Thyroid gland ([3]; 10 min after administration): 3.54 ± 0.37 % ID/g | Radioactivity distribution Whole brain ([3]; 10 min after administration): 0.02 ± 0.00 % ID/g | Adrenal gland/blood ratio of radioactivity accumulation ([3]; 30 min after administration): 40.26 ± 12.64 | Adrenal gland/fat ratio of radioactivity accumulation ([3]; 30 min after administration): 147.73 ± 74.06 | Adrenal gland/kidney ratio of radioactivity accumulation ([3]; 30 min after administration): 17.90 ± 4.66 | Adrenal gland/liver ratio of radioactivity accumulation ([3]; 30 min after administration): 13.82 ± 3.67 | Adrenal gland/muscle ratio of radioactivity accumulation ([3]; 30 min after administration): 110.91 ± 25.83 | Adrenal gland/small intestine ratio of radioactivity accumulation ([3]; 30 min after administration): 9.24 ± 1.46 | Radioactivity distribution Adrenal gland ([3]; 30 min after administration): 16.93 ± 3.32 % ID/g | Radioactivity distribution Bladder (including urine) ([3]; 30 min after administration): 1.35 ± 0.14 % ID/g | Radioactivity distribution Blood ([3]; 30 min after administration): 0.43 ± 0.05 % ID/g | Radioactivity distribution Fat ([3]; 30 min after administration): 0.12 ± 0.04 % ID/g | Radioactivity distribution Heart ([3]; 30 min after administration): 0.49 ± 0.01 % ID/g | Radioactivity distribution Kidney ([3]; 30 min after administration): 0.95 ± 0.06 % ID/g | Radioactivity distribution Large intestine ([3]; 30 min after administration): 0.19 ± 0.00 % ID/g | Radioactivity distribution Liver ([3]; 30 min after administration): 1.24 ± 0.09 % ID/g | Radioactivity distribution Lung ([3]; 30 min after administration): 0.76 ± 0.04 % ID/g | Radioactivity distribution Muscle (lower limbs) ([3]; 30 min after administration): 0.15 ± 0.01 % ID/g | Radioactivity distribution Remaining whole body ([3]; 30 min after administration): 0.31 ± 0.01 % ID/g | Radioactivity distribution Small intestine ([3]; 30 min after administration): 1.83 ± 0.07 % ID/g | Radioactivity distribution Spleen ([3]; 30 min after administration): 5.44 ± 1.82 % ID/g | Radioactivity distribution Stomach ([3]; 30 min after administration): 2.24 ± 0.39 % ID/g | Radioactivity distribution Testis ([3]; 30 min after administration): 0.12 ± 0.00 % ID/g | Radioactivity distribution Thyroid gland ([3]; 30 min after administration): 9.97 ± 0.74 % ID/g | Radioactivity distribution Whole brain ([3]; 30 min after administration): 0.02 ± 0.00 % ID/g | Adrenal gland/blood ratio of radioactivity accumulation ([3]; 60 min after administration): 29.41 ± 3.13 | Adrenal gland/fat ratio of radioactivity accumulation ([3]; 60 min after administration): 105.17 ± 28.98 | Adrenal gland/kidney ratio of radioactivity accumulation ([3]; 60 min after administration): 18.87 ± 3.12 | Adrenal gland/liver ratio of radioactivity accumulation ([3]; 60 min after administration): 16.66 ± 3.13 | Adrenal gland/muscle ratio of radioactivity accumulation ([3]; 60 min after administration): 95.38 ± 22.07 | Adrenal gland/small intestine ratio of radioactivity accumulation ([3]; 60 min after administration): 6.64 ± 2.31 | Radioactivity distribution Adrenal gland ([3]; 60 min after administration): 11.65 ± 1.54 % ID/g | Radioactivity distribution Bladder (including urine) ([3]; 60 min after administration): 1.27 ± 0.07 % ID/g | Radioactivity distribution Blood ([3]; 60 min after administration): 0.40 ± 0.01 % ID/g | Radioactivity distribution Fat ([3]; 60 min after administration): 0.11 ± 0.02 % ID/g | Radioactivity distribution Heart ([3]; 60 min after administration): 0.35 ± 0.03 % ID/g | Radioactivity distribution Kidney ([3]; 60 min after administration): 0.62 ± 0.08 % ID/g | Radioactivity distribution Large intestine ([3]; 60 min after administration): 0.43 ± 0.19 % ID/g | Radioactivity distribution Liver ([3]; 60 min after administration): 0.70 ± 0.05 % ID/g | Radioactivity distribution Lung ([3]; 60 min after administration): 0.60 ± 0.03 % ID/g | Radioactivity distribution Muscle (lower limbs) ([3]; 60 min after administration): 0.12 ± 0.02 % ID/g | Radioactivity distribution Remaining whole body ([3]; 60 min after administration): 0.33 ± 0.02 % ID/g | Radioactivity distribution Small intestine ([3]; 60 min after administration): 1.85 ± 0.44 % ID/g | Radioactivity distribution Spleen ([3]; 60 min after administration): 5.27 ± 0.89 % ID/g | Radioactivity distribution Stomach ([3]; 60 min after administration): 4.35 ± 0.25 % ID/g | Radioactivity distribution Testis ([3]; 60 min after administration): 0.15 ± 0.01 % ID/g | Radioactivity distribution Thyroid gland ([3]; 60 min after administration): 19.76 ± 1.03 % ID/g | Radioactivity distribution Whole brain ([3]; 60 min after administration): 0.02 ± 0.00 % ID/g
